Patent publication US20240344145A1, “PHARMACOGENOMICS SCORE TO MAKE DECISIONS ON THERAPY AUGMENTATION IN AML” (University of Florida Research Foundation, Incorporated, priority 2021, published 2024)

System: pediatric AML patients
Assay: AML02 multicenter clinical trial, LDAC vs HDAC induction arms: MRD1, EFS and OS overall and by ACS10 score
Assay type: in vivo, human
Parameters: 3-year EFS / 4-year OS / 5-year OS / 4-year EFS / 5-year EFS / 3-year OS: unit not given here
Details: for Event-free Survival 5 years / Overall Survival 5 years: AML02 cohort
Procedure: One hundred and sixty-six pediatric AML patients treated under the multicenter AML02 clinical trial protocol were included in the study. Details of study design and clinical outcome have been described elsewhere. Briefly, patients with de novo AML were randomized to receive either high (3 g/m^2, given every 12 h on days 1, 3, and 5; this condition is designated “HDAC”) or low dose (100 mg/m^2 given every 12 h on days 1-10; this condition is designated “LDAC”) cytarabine along with daunorubicin (50 mg/m^2 on days 2, 4 and 6) and etoposide (100 mg/m^2 on days 2-6) as a first course of chemotherapy with subsequent treatment tailored to response and risk classification. For initial risk assignment, patients with cytogenetic translocations comprisingt [8;21] (e.g., translocation between chromosome 8 and 21), inv (16), ort [9;11] were classified as low-risk. Patients with features such as deletion of chromosome 7 (−7), presence of FLT3-ITD mutation (FLT-ITD), cytogenetic translocation comprisingt [6;9], megakaryoblastic leukemia (AMKL), treatment-related AML, or AML arising from MDS were classified as high-risk AML. Patients lacking any of the low or high-risk group features were provisionally classified as standard risk AML. Patient risk classifications were updated on the basis of minimal residual disease evaluations. Clinical endpoints used in this evaluation were defined as follows: i) Minimal residual disease after induction 1 (“MRD1”) (patients were defined as MRD positive if they had ≥1 leukemic cell per 1000 mononuclear bone marrow cells (≥0.1%); ii) Complete remission defined as trilineage hematopoietic recovery with less than 5% blasts in the marrow; iii) Event-free survival (“EFS”) defined as the time from study enrollment to induction failure, relapse, secondary malignancy, death, or study withdrawal for any reason, with event-free patients censored on the date of last follow-up; and iv) Overall survival (“OS”) defined as the time from study enrollment to death, with living patients censored on the date of last follow-up. St. Jude Institutional Review Board approved the study, and informed consent was obtained from parents/guardians and consents/assents from the individuals.
The association of MRD1, EFS, and OS was evaluated with ACS10 scores in the AML02 discovery cohort and the AAML0531 validation cohort. The Kaplan-Meier method was used to estimate the EFS and OS probabilities for well-defined groups of patients. Cox regression models were used to associate ACS10 with EFS and OS and used logistic regression models to associate ACS10 with MRD1. The Wilcoxon rank-sum test and Kruskal-Wallis test were used to compare medians of numeric variables across groups. Chi-square tests and Fisher's exact test were used to evaluate the association among pairs of categorical variables. All p-values are two-sided. All statistical analyses were performed using R software (www.r-project.org).
The multicenter AML02 clinical trial randomly assigned subjects to receive low dose ara-C (LDAC: 100 mg/m^2; n=91 patients) or high dose ara-C(HDAC: 3 g/m^2; n=75 patients) in combination with daunorubicin and etoposide as the first course of chemotherapy as described above in patient cohort section. Thus, the association of SNPs with outcome within each arm separately was also explored (Table 5).
Given patients in AML02 cohort were randomized to receive low or augmented high dose of ara-C, this unique opportunity was leveraged to evaluate performance of ACS10 score within the different ara-C dose treatment arms (of note LDAC and HDAC arms had similar distribution of patients across, disease characteristics, risk group, cytogenetics, race, gender etc. Table 3). […]

[1] = ACS10 score 0, risk-adjusted Cox model
[2] = ACS10 score 1, risk-adjusted Cox model
[3] = ACS10 score 2, risk-adjusted Cox model
[4] = ACS10 score 3, risk-adjusted Cox model
[5] = ACS10 score 4, risk-adjusted Cox model
[6] = ACS10 score 5, risk-adjusted Cox model
[7] = ACS10 score −1, risk-adjusted Cox model
[8] = ACS10 score −2, risk-adjusted Cox model
[9] = ACS10 score −3, risk-adjusted Cox model
[10] = ACS10 score −5, risk-adjusted Cox model
[11] = low ACS10 score (≤0) patients, AML02
[12] = number of patients per arm, after induction 1, AML02 cohort
[13] = patients with ACS10 score of +5, risk-adjusted Cox model
[14] = patients with ACS10 score of −5, risk-adjusted Cox model

Nc1ccn([C@@H]2O[C@H](CO)[C@@H](O)[C@@H]2O)c(=O)n1 [HDAC, cytarabine]
3-year EFS [1]: 0.6070
3-year OS [1]: 0.6946
4-year EFS [1]: 0.5942
4-year OS [1]: 0.6875
5-year EFS [1]: 0.5872
5-year OS [1]: 0.6875
3-year EFS [2]: 0.6247
3-year OS [2]: 0.7260
4-year EFS [2]: 0.6122
4-year OS [2]: 0.7194
5-year EFS [2]: 0.6053
5-year OS [2]: 0.7194
3-year EFS [3]: 0.6418
3-year OS [3]: 0.7550
4-year EFS [3]: 0.6297
4-year OS [3]: 0.7489
5-year EFS [3]: 0.6231
5-year OS [3]: 0.7489
3-year EFS [4]: 0.6585
3-year OS [4]: 0.7816
4-year EFS [4]: 0.6468
4-year OS [4]: 0.7760
5-year EFS [4]: 0.6403
5-year OS [4]: 0.7760
3-year EFS [5]: 0.6747
3-year OS [5]: 0.8058
4-year EFS [5]: 0.6633
4-year OS [5]: 0.8007
5-year EFS [5]: 0.6570
5-year OS [5]: 0.8007
3-year EFS [6]: 0.6903
3-year OS [6]: 0.8278
4-year EFS [6]: 0.6793
4-year OS [6]: 0.8232
5-year EFS [6]: 0.6732
5-year OS [6]: 0.8232
3-year EFS [7]: 0.5889
3-year OS [7]: 0.6609
4-year EFS [7]: 0.5758
4-year OS [7]: 0.6533
5-year EFS [7]: 0.5686
5-year OS [7]: 0.6533
3-year EFS [8]: 0.5703
3-year OS [8]: 0.6251
4-year EFS [8]: 0.5569
4-year OS [8]: 0.6170
5-year EFS [8]: 0.5496
5-year OS [8]: 0.6170
3-year EFS [9]: 0.5513
3-year OS [9]: 0.5873
4-year EFS [9]: 0.5377
4-year OS [9]: 0.5788
5-year EFS [9]: 0.5302
5-year OS [9]: 0.5788
3-year EFS [10]: 0.5123
3-year OS [10]: 0.5073
4-year EFS [10]: 0.4983
4-year OS [10]: 0.4983
5-year EFS [10]: 0.4906
5-year OS [10]: 0.4983
Event-free Survival 5 years (High ACS10 score group): 0.631 ± 0.074
Overall Survival 5 years (High ACS10 score group): 0.743 ± 0.067
Event-free Survival 5 years (Low ACS10 score group): 0.548 ± 0.089
Overall Survival 5 years (Low ACS10 score group): 0.634 ± 0.088
5 year EFS [11]: 55%
five-year OS [11]: 63%
MRDIND1 Negative (<0.1%) [12]: 43^+
MRDIND1 Positive (>=0.1%) [12]: 28^+
3-year EFS, model estimate [13]: 69.0%
3-year OS, model estimate [13]: 82.8%
3-year EFS, model estimate [14]: 51.2%
3-year OS, model estimate [14]: 50.7%
Event-free Survival 5 years (probability, whole arm): 0.597 ± 0.0569
Overall Survival 5 years (probability, whole arm): 0.699 ± 0.0537
EFS HR, low-ACS10 vs high-ACS10 score (within arm, AML02): 1.28
OS HR, low-ACS10 vs high-ACS10 score (within arm, AML02): 1.56
EFS HR for each one-point increase in ACS10 (within arm, risk-adjusted Cox model, AML02): 0.92
